Data reported in ChEMBL document CHEMBL4024701, “Optimization and Structure-Activity Relationships of Phosphinic Pseudotripeptide Inhibitors of Aminopeptidases That Generate Antigenic Peptides” (J Med Chem, 2016).

What was measured:
[1] = target: Leucyl-cystinyl aminopeptidase (Homo sapiens, UniProt Q9UIQ6); assay: Inhibition of IRAP (unknown origin) expressed in HEK 293S GnTI(-) cells by in vitro fluorimetric assay; format: cell-based
[2] = Effect on cross-presentation activity of IRAP-/- knockdown C57Bl/6 mouse CD8alpha-positive dendritic cells assessed as IL2 level in CD8+ T-cells isolated from lymph nodes of Rag-1-/- C57Bl/6 OT-I mouse at 3.3 uM pre-incubated for 60 mins followed by addition of ovalbumin measured after 6 hrs by sandwich ELISA assay; details: cd8alpha-positive dendritic cell
[3] = (§1) Effect on cross-presentation activity of IRAP-/- knockdown C57Bl/6 mouse CD8alpha-positive T cells assessed as IL2 level in CD8+ T-cells isolated from lymph nodes of Rag-1-/- C57Bl/6 OT-I mouse at 3 to 1000 nmol/L pre-incubated for 60 mins followed by addition of ovalbumin measured after 6 hrs by sandwich ELISA assay; format: ADME, cell-based
[4] = target: T1, Leucyl-cystinyl aminopeptidase (Mus musculus) (UniProt Q8C129); assay: (§2) Inhibition of IRAP in C57Bl/6 mouse CD11b-positive dendritic cells assessed as reduction of IRAP-dependent cross-presentation activity by measuring IL2 level in CD8+ T-cells isolated from lymph nodes of Rag-1-/- C57Bl/6 OT-I mouse at 3 to 3333 nM pre-incubated for 60 mins followed by addition of ovalbumin measured after 6 hrs by sandwich ELISA
T1 sequence (whole entry): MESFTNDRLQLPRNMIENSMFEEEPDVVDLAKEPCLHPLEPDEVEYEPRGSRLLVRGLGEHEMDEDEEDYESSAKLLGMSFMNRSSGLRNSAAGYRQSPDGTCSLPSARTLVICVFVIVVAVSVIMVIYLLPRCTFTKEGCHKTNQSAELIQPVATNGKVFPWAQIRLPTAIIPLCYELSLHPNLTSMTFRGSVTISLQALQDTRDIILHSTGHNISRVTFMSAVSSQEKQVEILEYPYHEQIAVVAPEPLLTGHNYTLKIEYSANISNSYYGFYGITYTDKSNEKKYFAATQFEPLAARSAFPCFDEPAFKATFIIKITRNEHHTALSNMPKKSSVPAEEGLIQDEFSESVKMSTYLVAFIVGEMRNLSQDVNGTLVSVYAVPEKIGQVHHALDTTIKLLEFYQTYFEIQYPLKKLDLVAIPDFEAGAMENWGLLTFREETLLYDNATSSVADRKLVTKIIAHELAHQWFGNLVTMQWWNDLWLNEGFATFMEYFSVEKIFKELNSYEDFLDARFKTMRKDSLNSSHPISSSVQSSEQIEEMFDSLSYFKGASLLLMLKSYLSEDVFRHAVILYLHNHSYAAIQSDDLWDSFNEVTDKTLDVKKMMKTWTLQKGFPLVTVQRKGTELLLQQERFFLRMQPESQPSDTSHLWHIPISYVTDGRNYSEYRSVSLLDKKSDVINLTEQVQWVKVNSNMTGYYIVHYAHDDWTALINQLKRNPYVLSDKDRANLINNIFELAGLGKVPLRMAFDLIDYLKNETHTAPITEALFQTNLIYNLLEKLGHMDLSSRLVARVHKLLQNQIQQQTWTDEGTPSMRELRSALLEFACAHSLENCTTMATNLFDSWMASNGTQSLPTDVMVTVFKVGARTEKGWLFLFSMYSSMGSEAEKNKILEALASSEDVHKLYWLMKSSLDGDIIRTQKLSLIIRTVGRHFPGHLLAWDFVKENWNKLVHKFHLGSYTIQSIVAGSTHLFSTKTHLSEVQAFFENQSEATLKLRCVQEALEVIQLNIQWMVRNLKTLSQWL

[5] = as §1, with “CD11b-positive dendritic” for “CD8alpha-positive T”; format: ADME, cell-based; details: cd11b-positive dendritic cell
[6] = as §1, with “CD11b-positive dendritic” for “CD8alpha-positive T”, “3.3 uM” for “3 to 1000 nmol/L”; format: ADME, cell-based; details: cd11b-positive dendritic cell
[7] = target: T1, Leucyl-cystinyl aminopeptidase (Mus musculus); assay: as §2, with “CD8 alpha-positive” for “CD11b-positive dendritic”
[8] = target: Endoplasmic reticulum aminopeptidase 1 (Homo sapiens, UniProt Q9NZ08); assay: Inhibition of ERAP1 (unknown origin) expressed in Hi5 cells by in vitro fluorimetric assay
Endoplasmic reticulum aminopeptidase 1, sequence (Q9NZ08 whole entry): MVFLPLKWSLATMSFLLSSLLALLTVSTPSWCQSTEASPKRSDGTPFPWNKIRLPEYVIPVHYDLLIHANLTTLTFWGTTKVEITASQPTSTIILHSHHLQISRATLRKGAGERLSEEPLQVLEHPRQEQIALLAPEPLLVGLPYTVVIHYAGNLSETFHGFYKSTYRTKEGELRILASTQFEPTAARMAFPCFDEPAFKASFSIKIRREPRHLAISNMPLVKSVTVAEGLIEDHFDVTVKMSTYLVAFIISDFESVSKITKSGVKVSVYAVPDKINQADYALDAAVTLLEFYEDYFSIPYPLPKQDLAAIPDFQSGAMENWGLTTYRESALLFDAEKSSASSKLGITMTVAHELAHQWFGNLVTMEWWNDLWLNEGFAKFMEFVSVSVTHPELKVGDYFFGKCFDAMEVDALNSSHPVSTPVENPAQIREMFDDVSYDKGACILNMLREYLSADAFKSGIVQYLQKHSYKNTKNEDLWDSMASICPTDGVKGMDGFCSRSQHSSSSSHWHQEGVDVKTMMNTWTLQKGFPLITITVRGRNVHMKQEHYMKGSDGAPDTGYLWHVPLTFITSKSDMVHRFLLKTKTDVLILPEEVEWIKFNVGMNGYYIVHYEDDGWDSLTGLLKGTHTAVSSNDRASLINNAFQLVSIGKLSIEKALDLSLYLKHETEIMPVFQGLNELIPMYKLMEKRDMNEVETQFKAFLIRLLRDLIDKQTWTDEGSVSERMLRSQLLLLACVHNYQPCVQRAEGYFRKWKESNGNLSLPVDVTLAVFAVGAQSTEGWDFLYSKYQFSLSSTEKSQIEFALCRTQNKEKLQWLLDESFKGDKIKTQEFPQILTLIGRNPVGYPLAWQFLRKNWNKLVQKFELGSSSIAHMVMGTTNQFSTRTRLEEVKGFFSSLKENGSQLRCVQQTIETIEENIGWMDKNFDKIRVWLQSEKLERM

Leucyl-cystinyl aminopeptidase, sequence (Q9UIQ6 whole entry): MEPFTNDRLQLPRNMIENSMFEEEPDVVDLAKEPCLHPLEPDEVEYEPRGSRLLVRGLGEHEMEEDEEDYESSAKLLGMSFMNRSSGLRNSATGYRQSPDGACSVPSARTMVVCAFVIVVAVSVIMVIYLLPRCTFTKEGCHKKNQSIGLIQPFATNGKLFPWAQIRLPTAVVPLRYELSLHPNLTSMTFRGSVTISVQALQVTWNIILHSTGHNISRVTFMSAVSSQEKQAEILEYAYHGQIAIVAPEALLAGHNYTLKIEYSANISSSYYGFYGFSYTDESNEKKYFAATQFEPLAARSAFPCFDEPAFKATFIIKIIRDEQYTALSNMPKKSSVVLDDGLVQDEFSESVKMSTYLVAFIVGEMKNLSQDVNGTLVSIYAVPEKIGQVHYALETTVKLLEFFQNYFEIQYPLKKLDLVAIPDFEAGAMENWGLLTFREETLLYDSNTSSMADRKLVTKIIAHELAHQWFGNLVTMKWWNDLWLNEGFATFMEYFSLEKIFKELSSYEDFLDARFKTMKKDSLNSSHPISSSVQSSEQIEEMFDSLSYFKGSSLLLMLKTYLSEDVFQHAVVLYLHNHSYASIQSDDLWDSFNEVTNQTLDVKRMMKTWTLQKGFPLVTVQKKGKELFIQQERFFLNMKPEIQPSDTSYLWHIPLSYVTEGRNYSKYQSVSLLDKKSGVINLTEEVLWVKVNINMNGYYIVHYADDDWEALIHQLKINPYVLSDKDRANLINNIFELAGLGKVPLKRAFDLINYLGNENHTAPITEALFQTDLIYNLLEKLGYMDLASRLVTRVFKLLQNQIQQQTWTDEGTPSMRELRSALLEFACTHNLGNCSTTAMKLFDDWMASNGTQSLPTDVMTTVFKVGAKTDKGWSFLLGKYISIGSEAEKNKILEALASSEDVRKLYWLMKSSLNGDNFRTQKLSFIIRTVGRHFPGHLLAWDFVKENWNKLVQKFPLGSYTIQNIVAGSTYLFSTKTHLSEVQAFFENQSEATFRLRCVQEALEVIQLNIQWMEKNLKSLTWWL

With `C#CC[C@H](CP(=O)(O)[C@@H](N)CCc1ccccc1)C(=O)N[C@@H](Cc1ccccc1)C(N)=O` as the compound, how does the IC50 [1] read?
Its IC50 is 0.002 µM.

With `NC(=O)[C@H](Cc1ccccc1)NC(=O)[C@H](CC(c1ccccc1)c1ccccc1)CP(=O)(O)[C@@H](N)CCc1ccccc1` as the compound, how does the Activity [2] read?
The Activity was “Toxic”.

And the Activity [3]?
The Activity was “Non-Toxic”.

What about the inhibition [4] of the same compound?
The inhibition was “Dose-dependent effect”.

What about the Activity [5] of the same compound?
The Activity was “Non-Toxic”.

What about the Activity [6] of the same compound?
The Activity was “Toxic”.

What about the inhibition [7] of the same compound?
Its inhibition is “Dose-dependent effect”.

With `NC(=O)[C@H](Cc1ccccc1)NC(=O)[C@H](Cc1cc(-c2ccccc2)cc(-c2ccccc2)c1)CP(=O)(O)[C@@H](N)CCc1ccccc1` as the compound, how does the IC50 [8] read?
The IC50 was > 35 µM.

With `NC(=O)[C@H](Cc1ccccc1)NC(=O)[C@@H](Cc1cc(-c2ccccc2)cc(-c2ccccc2)c1)CP(=O)(O)[C@@H](N)CCc1ccccc1` as the compound, how does the IC50 [8] read?
The IC50 was > 100 µM.
